# ChEMBL document CHEMBL1201862, “PubChem BioAssay data set” (2004)
#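 How tested: cells in 96-well plates exposed to compound for 48 hours at five concentrations. GI50 marks 50% less growth.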 The source made the active and inactive calls. No stated cut-off is given here; in the data, active = GI50 up to about 1.1 µM and inactive = higher.
# Columns and labels:
# Experiment in all cases: NCI anticancer screen, dose series, 48 h
# [1] = tested on: 786-0
# [2] = tested on: A498
# [3] = tested on: A549
# [4] = tested on: ACHN
# [5] = tested on: CAKI-1
# [6] = tested on: CCRF-CEM
# [7] = tested on: COLO 205
# [8] = tested on: DLD-1
# [9] = tested on: DMS-114
# [10] = tested on: DMS-273
# [11] = tested on: EKVX
# [12] = tested on: HCC 2998
# [13] = tested on: HCT-116
# [14] = tested on: HCT-15
# [15] = tested on: HL-60
# [16] = tested on: HOP-18
# [17] = tested on: HOP-62
# [18] = tested on: HOP-92
# [19] = tested on: HT-29
# [20] = tested on: IGROV-1
# [21] = tested on: K562
# [22] = tested on: KM-20L2
# [23] = tested on: KM12
# [24] = tested on: LOX IMVI
# [25] = tested on: LXFL 529
# [26] = tested on: M14
# [27] = tested on: M19-MEL
# [28] = tested on: MOLT-4
# [29] = tested on: Malme-3M
# [30] = tested on: NCI-H226
# [31] = tested on: NCI-H23
# [32] = tested on: NCI-H460
# [33] = tested on: NCI-H522
# [34] = tested on: OVCAR-3
# [35] = tested on: OVCAR-4
# [36] = tested on: OVCAR-5
# [37] = tested on: OVCAR-8
# [38] = tested on: RPMI-8226
# [39] = tested on: RXF 393
# [40] = tested on: RXF 631
# [41] = tested on: SF-268
# [42] = tested on: SF-295
# [43] = tested on: SF-539
# [44] = tested on: SK-MEL-28
# [45] = tested on: SK-MEL-2
# [46] = tested on: SK-MEL-5
# [47] = tested on: SK-OV-3
# [48] = tested on: SN12C
# [49] = tested on: SNB-19
# [50] = tested on: SNB-75
# [51] = tested on: SNB-78
# [52] = tested on: SR
# [53] = tested on: TK-10
# [54] = tested on: U-251
# [55] = tested on: UACC-257
# [56] = tested on: UACC-62
# [57] = tested on: UO-31
# [58] = tested on: XF498
smiles,measurement,setting,value
O=C(Cc1csc(-c2nc(CC(=O)NNc3ccccc3)cs2)n1)NNc1ccccc1,GI50,[1],35.6 µM (inactive)
same,GI50,[2],> 100 µM (inactive)
same,GI50,[3],> 100 µM (inactive)
same,GI50,[4],> 100 µM (inactive)
same,GI50,[5],> 100 µM (inactive)
same,GI50,[6],34.9 µM (inactive)
same,GI50,[7],25.9 µM (inactive)
same,GI50,[8],49 µM (inactive)
same,GI50,[9],25.6 µM (inactive)
same,GI50,[10],12.8 µM (inactive)
same,GI50,[11],> 100 µM (inactive)
same,GI50,[12],43 µM (inactive)
same,GI50,[13],77.1 µM (inactive)
same,GI50,[14],38.4 µM
same,GI50,[15],32 µM (inactive)
same,GI50,[16],> 100 µM (inactive)
same,GI50,[17],> 100 µM (inactive)
same,GI50,[18],> 100 µM (inactive)
same,GI50,[19],71.1 µM (inactive)
same,GI50,[20],> 100 µM (inactive)
same,GI50,[21],32.8 µM (inactive)
same,GI50,[22],> 100 µM (inactive)
same,GI50,[23],> 100 µM (inactive)
same,GI50,[24],19.6 µM (inactive)
same,GI50,[25],91.2 µM (inactive)
same,GI50,[26],> 100 µM (inactive)
same,GI50,[27],> 100 µM (inactive)
same,GI50,[28],39.4 µM (inactive)
same,GI50,[29],> 100 µM (inactive)
same,GI50,[30],> 100 µM (inactive)
same,GI50,[31],> 100 µM (inactive)
same,GI50,[32],23.5 µM (inactive)
same,GI50,[33],20.4 µM (inactive)
same,GI50,[34],> 100 µM (inactive)
same,GI50,[35],> 100 µM (inactive)
same,GI50,[36],> 100 µM (inactive)
same,GI50,[37],> 100 µM (inactive)
same,GI50,[38],> 100 µM (inactive)
same,GI50,[39],> 100 µM (inactive)
same,GI50,[40],> 10 µM (inactive)
same,GI50,[41],> 100 µM (inactive)
same,GI50,[42],> 100 µM (inactive)
same,GI50,[43],> 100 µM (inactive)
same,GI50,[44],> 100 µM (inactive)
same,GI50,[45],> 100 µM (inactive)
same,GI50,[46],> 100 µM (inactive)
same,GI50,[47],> 100 µM (inactive)
same,GI50,[48],> 100 µM (inactive)
same,GI50,[49],> 100 µM (inactive)
same,GI50,[50],> 100 µM (inactive)
same,GI50,[51],> 100 µM (inactive)
same,GI50,[52],25.5 µM (inactive)
same,GI50,[53],> 100 µM (inactive)
same,GI50,[54],> 100 µM (inactive)
same,GI50,[55],> 100 µM (inactive)
same,GI50,[56],> 100 µM (inactive)
same,GI50,[57],> 100 µM (inactive)
same,GI50,[58],> 100 µM (inactive)
